Experimental data from ChEMBL document CHEMBL5131564, “Discovery of Potent and Selective Receptor-Interacting Serine/Threonine Protein Kinase 2 (RIPK2) Inhibitors for the Treatment of Inflammatory Bowel Diseases (IBDs)” (J Med Chem, 2022).

Columns and labels:
[1] = Metabolic stability in human liver microsomes assessed as half life at 1 uM by LC/MS/MS analysis; format: ADME, Microsome
[2] = target: T1, Dual serine/threonine and tyrosine protein kinase (Homo sapiens, UniProt Q6XUX3); assay: Binding affinity to human RIPK5
T1 sequence (Q6XUX3 whole entry): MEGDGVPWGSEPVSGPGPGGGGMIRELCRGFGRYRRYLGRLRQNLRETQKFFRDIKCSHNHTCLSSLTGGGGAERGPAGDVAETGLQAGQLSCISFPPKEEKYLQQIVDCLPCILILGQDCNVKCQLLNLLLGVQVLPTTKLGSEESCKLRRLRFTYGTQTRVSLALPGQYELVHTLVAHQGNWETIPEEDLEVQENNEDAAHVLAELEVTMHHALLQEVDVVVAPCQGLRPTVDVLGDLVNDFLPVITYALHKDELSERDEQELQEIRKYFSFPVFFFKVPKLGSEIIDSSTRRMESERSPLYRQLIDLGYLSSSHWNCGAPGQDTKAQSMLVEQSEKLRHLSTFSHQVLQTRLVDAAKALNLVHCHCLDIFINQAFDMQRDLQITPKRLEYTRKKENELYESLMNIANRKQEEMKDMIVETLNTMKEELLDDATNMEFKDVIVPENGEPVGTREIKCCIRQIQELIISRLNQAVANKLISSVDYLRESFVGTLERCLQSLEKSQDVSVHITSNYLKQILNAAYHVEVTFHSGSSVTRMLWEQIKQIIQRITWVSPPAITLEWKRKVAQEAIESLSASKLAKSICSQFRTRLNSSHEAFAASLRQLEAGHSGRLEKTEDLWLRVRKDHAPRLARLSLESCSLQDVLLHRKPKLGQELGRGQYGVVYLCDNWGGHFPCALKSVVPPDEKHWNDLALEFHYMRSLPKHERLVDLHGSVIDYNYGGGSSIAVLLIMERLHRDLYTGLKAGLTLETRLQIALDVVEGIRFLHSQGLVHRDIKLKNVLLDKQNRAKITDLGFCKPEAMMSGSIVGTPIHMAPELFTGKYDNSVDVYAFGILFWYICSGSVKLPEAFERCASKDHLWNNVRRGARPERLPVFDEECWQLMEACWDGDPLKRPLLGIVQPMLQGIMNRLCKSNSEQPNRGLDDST

half-life at 1 µM [1]: > 2 h
Kd [2]: 670 nM
Compound: Cc1ccc(-c2cn([C@H]3CC[C@@H](N)CC3)c3ncnc(N)c23)c(F)c1
